Measurements as given in patent US11124513B2, “Avibactam free acid” (Sandoz AG, priority 2016, dated 2021).
Structures can show the parent of a compound that is named as a salt.

Tests used:
[1] = Stability against temperature stress (dehydration, form conversion); format: physicochemical
[2] = stated in WO 2011/042560 A1; cited from earlier work
[3] = stated in WO 2011/042560 A1 (page 17); cited from earlier work
bacteria = conditions: at clinically relevant doses; reported; cited from earlier work
[4] = Differential scanning calorimetry; format: physicochemical; conditions: 10 K/min; crystalline Form 1 (FIG. 3)
Method: Differential scanning calorimetry was performed on a Mettler Toledo Polymer DSC R instrument. The sample (1.27 mg) was heated in a 40 microL aluminium pan with pierced aluminium lid from 25 to 160° C. at a rate of 10 K/min. Nitrogen (purge rate 50 mL/min) was used as purge gas.

[5] = Stability against moisture / hygroscopicity
[6] = Thermogravimetric analysis; format: physicochemical; conditions: up to a temperature of about 130° C.; 10 K/min; crystalline Form 1 (FIG. 4)
Method: Thermogravimetric analysis (TGA) was performed on a Mettler TGA/DSC 1 instrument. The sample (6.30 mg) was heated in a 100 microL aluminum pan closed with an aluminum lid. The lid was automatically pierced at the beginning of the measurement. The sample was heated from 25 to 200° C. at a rate of 10 K/min. Nitrogen (purge rate 50 mL/min) was used as purge gas.

With `NC(=O)C1CCC2CN1C(=O)N2OS(=O)(=O)[O-].O.[Na+]` (stereo not shown) [form A] the “behaviour under temperature stress” value [1] was “dehydrates to the anhydrous form B”.

In the case of `NC(=O)[C@@H]1CC[C@@H]2CN1C(=O)N2OS(=O)(=O)[O-].O.O.[Na+]` [form E], the “relative humidity above which the form is particularly stable” value [2] is listed as over 70%, the “temperature above which the form dehydrates (to monohydrate form A)” value ([1]; temperature stress) is listed as “above 60 °C” and the “tendency to lose water and hydrolyze” value [3] is listed as “tends to lose water and to hydrolyze”.

In the case of `NC(=O)[C@@H]1CC[C@@H]2CN1C(=O)N2OS(=O)(=O)O` [avibactam free acid, [(2S,5R)-2-carbamoyl-7-oxo-1,6-diazabicylco[3.2.1]octan-6-yl] hydrogen sulfate], the “antibacterial activity of its own” value (bacteria) is given as “no antibacterial activity at clinically relevant doses”, the “temperature up to which no thermal event is seen in the differential scanning calorimetry curve” value [4] is given as “at least 130 °C” and the hygroscopicity [5] is given as “low hygroscopicity”. For the same compound, the stability against moisture ([5]; increased relative humidity levels) was “very stable against moisture”, the “behaviour under temperature stress” value [1] was “very stable against temperature stress” and the “weight loss, thermogravimetric analysis” value [6] was “about 0.3 weight %”.
